We go through 31 compounds from PubChem BioAssay (NCI).

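How tested: cells in 96-well plates exposed to compound for 48 hours at five concentrations. TGI: concentration producing complete growth inhibition.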 Bounds are passed on as bounds.

Common to all, as to test: inhibition of tumour cell growth, NCI panel, 48 h
In assay [1] the test system is IGROV1 ovarian.
Assay [2] has as its system SF-295 CNS.
Assay [3] concerns CAKI-1 renal.
Assay [4] concerns MDA-MB-435.
In assay [5] the test system is ACHN renal.
The subject of assay [6] is EKVX NSCLC.
Assay [7] deals with OVCAR-8 ovarian.
In assay [8] the test system is TK-10 renal.

Take `COc1cc(I)c2c3c1OC1C34CCN(C)C(C2)C4=CC(I)C1(OC)OC` (stereo not drawn): the TGI in assay [1] was 54.3 µM; in assay [2] it was greater than 100 µM; in assay [3] it was 93.8 µM; in assay [4], 33.8 µM; in assay [5] it was 98.3 µM; in assay [6], greater than 100 µM. Further, the TGI in assay [7] is 53 µM; in assay [8], 51.1 µM.
As to `N#Cc1cc2c(cc1Cl)Sc1nccn1S2(=O)=O`, the TGI in assay [1] is 13.6 µM; in assay [2] it was 12.2 µM; in assay [3], 3.6 µM; in assay [4] it was 17.5 µM; in assay [5], 4.64 µM; in assay [6], 35.9 µM. Also, the figures for the TGI in assay [7] and in assay [8] were 8.9 µM and 28 µM, respectively.
Consider `CCOc1cc(-c2nc3ccccn3c2/N=C/c2cc(Br)ccc2O)ccc1O`, for which the TGI in assay [1] was 49.1 µM; in assay [2], greater than 100 µM; in assay [3], greater than 100 µM; in assay [4], greater than 100 µM; in assay [5], greater than 100 µM; in assay [6] it was 76.6 µM. The TGI came to 59.3 µM in assay [7] and 48.7 µM in assay [8].
With `NC(=O)C(=CNC(=S)c1ccncc1)C(N)=O`, the TGI in assay [1], in assay [2], in assay [3], in assay [4], in assay [5] and in assay [6] was greater than 100 µM in each case. For the same compound, the TGI in assay [7] and in assay [8] was greater than 100 µM throughout.
For `Brc1ccc2c(-c3csc(-c4c[nH]c5cc(Br)ccc45)n3)c[nH]c2c1`, the TGI in assay [1] is greater than 75.2 µM; in assay [2], 45.5 µM; in assay [3] it was greater than 100 µM; in assay [4], 17.5 µM; in assay [5], greater than 100 µM; in assay [6], greater than 100 µM. Besides, the values for the TGI in assay [7] and in assay [8] were greater than 57.1 µM and greater than 100 µM, respectively.
With `Brc1cc2nn(-c3ccccc3)nc2c2nonc12`, the TGI in assay [1], in assay [2], in assay [3], in assay [4], in assay [5] and in assay [6] was greater than 100 µM throughout. The TGI in assay [7] and in assay [8] was greater than 100 µM throughout.
With `COCc1nc2c(OC)cc(-c3nc4ccc(N5CCN(C)CC5)cc4[nH]3)c(OC)c2[nH]1`, the TGI in assay [1] is greater than 100 µM; in assay [2], 47.2 µM; in assay [3], greater than 100 µM; in assay [4] it was greater than 100 µM; in assay [5], greater than 100 µM; in assay [6], greater than 100 µM. Besides, the TGI in assay [7] and in assay [8] was greater than 100 µM each time.
Regarding `CC(C)(C)c1cc(/C=C(\C#N)C(=O)NCCO)cc(C(C)(C)C)c1O`, the TGI is greater than 100 µM in assay [1]; 40.8 µM in assay [2]; 77.6 µM in assay [3]; 45 µM in assay [4]; 76.5 µM in assay [5]; 70.4 µM in assay [6]. The TGI in assay [7] was greater than 100 µM; in assay [8] it was 60.9 µM.
Turning to `CC1S/C(=N/c2nnc(-c3ccccc3)o2)NC1=O` (stereo not drawn), the TGI was greater than 100 µM in assay [1]; greater than 100 µM in assay [2]; greater than 100 µM in assay [3]; greater than 100 µM in assay [4]; greater than 100 µM in assay [5]; 85.2 µM in assay [6]. For the same compound, the TGI in assay [7] and in assay [8] was greater than 100 µM in each case.
Regarding `CCOC(=O)C(CC#Cc1ccc(C#CCC(NC(C)=O)C(=O)OCC)cc1)NC(C)=O` (stereo not drawn), the TGI in assay [1], in assay [2], in assay [3], in assay [4], in assay [5] and in assay [6] was greater than 100 µM each time. Also, the TGI in assay [7] and in assay [8] was greater than 100 µM in each case.
For `FC(F)(F)c1ccc2nc3n(c2c1)C(c1c(Cl)cccc1Cl)SC3` (stereo not drawn), the TGI in assay [1] turned out to be 24.1 µM; in assay [2], 30.3 µM; in assay [3], 28 µM; in assay [4], 30.5 µM; in assay [5], 32.1 µM; in assay [6], 28.6 µM. In addition, the TGI was determined as 46.8 µM in assay [7] and 35.4 µM in assay [8].
As to `O=c1c2ccccc2nc(Nc2cccc(Cl)c2)n1/N=C/C=C/c1ccccc1`, the TGI in assay [1], in assay [2], in assay [3], in assay [4], in assay [5] and in assay [6] was greater than 100 µM each time. The TGI in assay [7] and in assay [8] was greater than 100 µM in each case.
Turning to `COc1ccc2cc(NC(=O)N/N=C\c3ccc(Cl)cc3)ccc2c1`, the TGI in assay [1], in assay [2], in assay [3], in assay [4], in assay [5] and in assay [6] was greater than 100 µM each time. Besides, the TGI in assay [7] and in assay [8] was greater than 100 µM throughout.
Consider `CC(=S)N=Cc1c(O)cc(C)oc1=O`, for which the TGI in assay [1], in assay [2], in assay [3], in assay [4], in assay [5] and in assay [6] was greater than 100 µM in each case. The TGI in assay [7] and in assay [8] was greater than 100 µM in each case.
`CCNC(=O)C1CCCN1C(=O)C(CCCN=C(N)N)NC(=O)C(CC(C)C)NC(=O)C(Cc1c[nH]c2ccccc12)NC(=O)C(Cc1ccc(O)cc1)NC(=O)C(CO)NC(=O)C(Cc1c[nH]c2ccccc12)NC(=O)C(Cc1cnc[nH]1)NC(=O)C1CCC(=O)N1` (stereo not drawn): the TGI in assay [1], in assay [2], in assay [3], in assay [4], in assay [5] and in assay [6] was greater than 100 µM throughout. Also, the TGI in assay [7] and in assay [8] was greater than 100 µM each time.
Take `Clc1ccc(OCc2nnc(CCCCCCCCc3nnc(COc4ccc(Cl)cc4)n3Nc3ccccc3)n2Nc2ccccc2)cc1`: the TGI in assay [1] was greater than 100 µM; in assay [2], greater than 100 µM; in assay [3], 27.2 µM; in assay [4], greater than 63.4 µM; in assay [5], greater than 93 µM; in assay [6], greater than 87.9 µM. Further, the TGI in assay [7] and in assay [8] was greater than 100 µM each time.
Turning to `Cc1cc2ncc3c(=O)n(NS(=O)(=O)c4ccc(N)cc4)ccc3n2n1`, the TGI in assay [1], in assay [2], in assay [3], in assay [4], in assay [5] and in assay [6] was greater than 100 µM throughout. The TGI in assay [7] and in assay [8] was greater than 100 µM each time.
Turning to `OC1(c2ccc(Cl)cc2)c2ccc3ccccc3c2C2=N[C@H]3CCCC[C@@H]3N21` (stereo partly drawn), the TGI is greater than 100 µM in assay [1]; 18.1 µM in assay [2]; 67.1 µM in assay [3]; greater than 100 µM in assay [4]; greater than 100 µM in assay [5]; 24 µM in assay [6]. The TGI is 3.45 µM in assay [7] and 4.87 µM in assay [8].
On to `C=c1c(OC)c(OC)c(O)c2c1=c1cc([N+](=O)[O-])cc(OC)c1=N2`, for which the TGI in assay [1], in assay [2], in assay [3], in assay [4], in assay [5] and in assay [6] was greater than 100 µM each time. In addition, the TGI in assay [7] and in assay [8] was greater than 100 µM in each case.
For `CN(C)CCn1c(=O)c2ccc(NCCCN(C)CCCNc3ccc4c(=O)n(CCN(C)C)c(=O)n5c6ccc([N+](=O)[O-])cc6c(=O)c3c45)c3c(=O)c4cc([N+](=O)[O-])ccc4n(c1=O)c23`, the TGI turned out to be 0.174 µM in assay [1]; 0.594 µM in assay [2]; 1.16 µM in assay [3]; 0.097 µM in assay [4]; 1.21 µM in assay [5]; 1.32 µM in assay [6]. For the same compound, the TGI in assay [7] amounted to 0.431 µM; in assay [8], 1.52 µM.
`CCOC(=O)C(NC(=O)CC(C)C)(N1CCN(c2cc3c(cc2F)c(=O)c(C(=O)O)cn3C2CC2)CC1)C(F)(F)F` (stereo not drawn): the TGI in assay [1] is 37.6 µM; in assay [2], 61.5 µM; in assay [3], 74.5 µM; in assay [4] it was 56.5 µM; in assay [5], 34.6 µM; in assay [6], 92.8 µM. The TGI in assay [7] was greater than 100 µM; in assay [8] it was 72.9 µM.
As to `NC1CNC(=O)c2c(Cl)sc(Cl)c21` (stereo not drawn), the TGI in assay [1], in assay [2], in assay [3], in assay [4], in assay [5] and in assay [6] was greater than 100 µM throughout. The TGI in assay [7] and in assay [8] was greater than 100 µM throughout.
For `CC1CC(=O)Nc2nc3ccccc3n21` (stereo not drawn), the TGI in assay [1], in assay [2], in assay [3], in assay [4], in assay [5] and in assay [6] was greater than 100 µM each time. For the same compound, the TGI in assay [7] and in assay [8] was greater than 100 µM in each case.
Take `COC(=O)Cc1c([C@H]2[C@H](CC(=O)OC)c3ccccc3N2C(C)=O)[nH]c2ccccc12`: the TGI in assay [1], in assay [2], in assay [3], in assay [4], in assay [5] and in assay [6] was greater than 100 µM each time. The TGI in assay [7] and in assay [8] was greater than 100 µM throughout.
Take `NC(N)=NS(=O)(=O)c1ccc(NC(=O)c2ccc3nc4ccccc4c(Nc4ccc(S(=O)(=O)N=C(N)N)cc4)c3c2)cc1`: the TGI in assay [1], in assay [2], in assay [3], in assay [4], in assay [5] and in assay [6] was greater than 100 µM throughout. The TGI in assay [7] and in assay [8] was greater than 100 µM in each case.
For the compound `CCN1CCC(O)(C(C(=O)O)c2ccccc2)CC1` (stereo not drawn), the TGI in assay [1], in assay [2], in assay [3], in assay [4], in assay [5] and in assay [6] was greater than 100 µM in each case. Also, the TGI in assay [7] and in assay [8] was greater than 100 µM in each case.
Take `COc1cc(/C=C\C(=O)O)ccc1OCc1ccccc1`: the TGI in assay [1], in assay [2], in assay [3], in assay [4], in assay [5] and in assay [6] was greater than 100 µM each time. The TGI in assay [7] and in assay [8] was greater than 100 µM in each case.
`O=c1c(-c2ccc(Cl)cc2)nnc2n(Cc3ccccc3)c3ccccc3n12`: the TGI in assay [1] was greater than 100 µM; in assay [2], 49.4 µM; in assay [3] it was 59.8 µM; in assay [4], greater than 100 µM; in assay [5], greater than 100 µM; in assay [6] it was greater than 100 µM. The TGI in assay [7] is greater than 100 µM; in assay [8], 61.8 µM.
For the compound `CC1(CNCc2ccccc2)CC(CCc2ccccc2)N(C(=O)c2ccc([N+](=O)[O-])cc2)C1Cc1ccc(O)cc1` (stereo not drawn), the TGI in assay [1] stood at 31.2 µM; in assay [2], 25.6 µM; in assay [3], 28.1 µM; in assay [4] it was 28.2 µM; in assay [5] it was 24.8 µM; in assay [6], 31 µM. The TGI in assay [7] stood at 32 µM; in assay [8] it was 30.9 µM.
For the compound `C=C1C(=O)O[C@@]23C1CC[C@@H](C)C2CC[C@@]1(C)OC31` (stereo partly drawn), the TGI stood at 32.3 µM in assay [1]; 48.9 µM in assay [2]; 18.4 µM in assay [3]; 23 µM in assay [4]; 27.1 µM in assay [5]; 30.5 µM in assay [6]. The TGI in assay [7] amounted to 56.5 µM; in assay [8], 16.8 µM.
As to `O=C(Nc1ccccc1C(=O)NCCCO)/C(=C/c1ccccc1O)NC(=O)c1ccccc1`, the TGI is greater than 100 µM in assay [1]; greater than 75.8 µM in assay [2]; greater than 100 µM in assay [3]; greater than 100 µM in assay [4]; 97.4 µM in assay [5]; greater than 100 µM in assay [6]. For the same compound, the TGI in assay [7] is greater than 64.6 µM; in assay [8] it was greater than 100 µM.
